Laboratory results from ChEMBL document CHEMBL1138599, “Conjugation with alpha-linolenic acid improves cancer cell uptake and cytotoxicity of doxorubicin” (Bioorg Med Chem Lett, 2009).

What was measured:
MCF7 [1] = experiment: Cytotoxicity against human MCF7 cells by MTT assay; format: functional, cell-based
MDA-MB-231 [2] = experiment: Cytotoxicity against human MDA-MB-231 cells MTT assay; format: functional, cell-based
HepG2 = experiment: Cytotoxicity against human HepG2 cells MTT assay; format: functional, cell-based
MCF7 [3] = experiment: Drug uptake in human MCF7 cells by flow cytometry; format: ADME, cell-based
MDA-MB-231 [4] = experiment: Drug uptake in human MDA-MB-231 cells by flow cytometry; format: ADME, cell-based

Row | Drug uptake (MCF7 [3]) | Drug uptake (MDA-MB-231 [4]) | SMILES | IC50 (MCF7 [1]) | IC50 (MDA-MB-231 [2]) | IC50 (HepG2)
1 | Dose-dependent effect | Dose-dependent effect | CC/C=C\C/C=C\C/C=C\CCCCCCCC(=O)N[C@H]1C[C@H](O[C@H]2C[C@](O)(C(=O)CO)Cc3c(O)c4c(c(O)c32)C(=O)c2c(OC)cccc2C4=O)O[C@@H](C)[C@H]1O | 4.7 µM | 3.1 µM | 6.8 µM
2 | Dose-dependent effect | Dose-dependent effect | COc1cccc2c1C(=O)c1c(O)c3c(c(O)c1C2=O)C[C@@](O)(C(=O)CO)C[C@@H]3O[C@H]1C[C@H](N)[C@H](O)[C@H](C)O1 [DOXORUBICIN] |  | 10.2 µM | 14.3 µM
